These results are taken from PubChem BioAssay AID1259407 (Chemical Carcinogenesis Research Information System (CCRIS), 2018).

For the data set, the system named is CCRIS mutagenicity, Ames/micronucleus/aberration tests. The data set is described as follows: CCRIS mutagenicity studies.
Setting [1] is: Test System: AMES SALMONELLA TYPHIMURIUM, Strain/Indicator: TA98, Metabolic Activation: NONE, Method: STANDARD PLATE.
Where [2] appears, read: Test System: AMES SALMONELLA TYPHIMURIUM, Strain/Indicator: TA100, Metabolic Activation: NONE, Method: STANDARD PLATE.
The mark [3] stands for this setting: Test System: AMES SALMONELLA TYPHIMURIUM, Strain/Indicator: TA1538, Metabolic Activation: NONE, Method: STANDARD PLATE.
Setting [4] is: Test System: AMES SALMONELLA TYPHIMURIUM, Strain/Indicator: TA1538, Metabolic Activation: RAT, LIVER, S-9, AROCLOR 1254, Method: STANDARD PLATE.

The source made the active and inactive calls. No rule for the calls is given here.

For `CCCCCCCCC=O`, the mutagenic call runs as follows: (End Point: IN VITRO CHROMOSOMAL ABERRATIONS, Test System: RAT HEPATOCYTES, Metabolic Activation: NONE) “inactive; negative”; (End Point: IN VITRO MICRONUCLEUS, Test System: RAT HEPATOCYTES, Metabolic Activation: NONE) “inactive; negative”; (Test System: AMES SALMONELLA TYPHIMURIUM, Strain/Indicator: TA98, Metabolic Activation: HAMSTER, LIVER, S-9, AROCLOR 1254, Method: STANDARD PLATE) “inactive; negative”; under setting [1], “inactive; negative”; (Test System: AMES SALMONELLA TYPHIMURIUM, Strain/Indicator: TA98, Metabolic Activation: RAT, LIVER, S-9, AROCLOR 1254, Method: STANDARD PLATE) “inactive; negative”; (Test System: AMES SALMONELLA TYPHIMURIUM, Strain/Indicator: TA98, Metabolic Activation: RAT, LIVER, S-9, AROCLOR, Method: STANDARD PLATE) “inactive; negative”. Moreover, the mutagenic call (Test System: AMES SALMONELLA TYPHIMURIUM, Strain/Indicator: TA100, Metabolic Activation: HAMSTER, LIVER, S-9, AROCLOR 1254, Method: STANDARD PLATE) is “inactive; negative”; the mutagenic call under setting [2] was “inactive; negative”; the mutagenic call (Test System: AMES SALMONELLA TYPHIMURIUM, Strain/Indicator: TA100, Metabolic Activation: RAT, LIVER, S-9, AROCLOR 1254, Method: STANDARD PLATE) was “inactive; negative”; the mutagenic call (Test System: AMES SALMONELLA TYPHIMURIUM, Strain/Indicator: TA100, Metabolic Activation: RAT, LIVER, S-9, AROCLOR, Method: STANDARD PLATE) was “inactive; negative”; the mutagenic call (Test System: AMES SALMONELLA TYPHIMURIUM, Strain/Indicator: TA1535, Metabolic Activation: HAMSTER, LIVER, S-9, AROCLOR 1254, Method: STANDARD PLATE) is “inactive; negative”; the mutagenic call (Test System: AMES SALMONELLA TYPHIMURIUM, Strain/Indicator: TA1535, Metabolic Activation: NONE, Method: STANDARD PLATE) was “inactive; negative”. Also, the mutagenic call is, setting by setting: (Test System: AMES SALMONELLA TYPHIMURIUM, Strain/Indicator: TA1535, Metabolic Activation: RAT, LIVER, S-9, AROCLOR 1254, Method: STANDARD PLATE) “inactive; negative”; (Test System: AMES SALMONELLA TYPHIMURIUM, Strain/Indicator: TA1537, Metabolic Activation: HAMSTER, LIVER, S-9, AROCLOR 1254, Method: STANDARD PLATE) “inactive; negative”; (Test System: AMES SALMONELLA TYPHIMURIUM, Strain/Indicator: TA1537, Metabolic Activation: NONE, Method: STANDARD PLATE) “inactive; negative”; (Test System: AMES SALMONELLA TYPHIMURIUM, Strain/Indicator: TA1537, Metabolic Activation: RAT, LIVER, S-9, AROCLOR 1254, Method: STANDARD PLATE) “inactive; negative”; (Test System: AMES SALMONELLA TYPHIMURIUM, Strain/Indicator: TA1538, Metabolic Activation: HAMSTER, LIVER, S-9, AROCLOR 1254, Method: STANDARD PLATE) “inactive; negative”; under setting [3], “inactive; negative”. The mutagenic call is, setting by setting: under setting [4], “inactive; negative”; (Test System: AMES SALMONELLA TYPHIMURIUM, Strain/Indicator: UTH8413, Metabolic Activation: NONE, Method: STANDARD PLATE) “inactive; negative”; (Test System: AMES SALMONELLA TYPHIMURIUM, Strain/Indicator: UTH8413, Metabolic Activation: RAT, LIVER, S-9, AROCLOR, Method: STANDARD PLATE) “inactive; negative”; (Test System: AMES SALMONELLA TYPHIMURIUM, Strain/Indicator: UTH8414, Metabolic Activation: NONE, Method: STANDARD PLATE) “inactive; negative”; (Test System: AMES SALMONELLA TYPHIMURIUM, Strain/Indicator: UTH8414, Metabolic Activation: RAT, LIVER, S-9, AROCLOR, Method: STANDARD PLATE) “inactive; negative”; (Test System: CHINESE HAMSTER V-79, Strain/Indicator: V-79/6-THIOGUANINE (HGPRT), Metabolic Activation: NONE, Method: REPLATING) “active; positive”. Moreover, the mutagenic call is “active; positive” (Test System: CHINESE HAMSTER V-79, Strain/Indicator: V-79/OUABAIN (NA/K), Metabolic Activation: NONE, Method: REPLATING); “inactive; negative. reevaluation of results: equivocal” (Test System: MOUSE LYMPHOMA, Strain/Indicator: L5178Y (TK+/TK-), Metabolic Activation: NONE, Method: SUSPENSION/PLATE); “inactive; negative. reevaluation of results: equivocal” (Test System: MOUSE LYMPHOMA, Strain/Indicator: L5178Y (TK+/TK-), Metabolic Activation: RAT, LIVER, S-9, AROCLOR 1254, Method: SUSPENSION/PLATE); “inactive; negative” (Test System: UDS HUMAN HEPATOCYTES, Strain/Indicator: THY INCORP, Metabolic Activation: NONE, Method: AUTORADIOGRAPHY); “inactive; negative” (Test System: UDS RAT HEPATOCYTES, Strain/Indicator: THY INCORP, Metabolic Activation: NONE, Method: AUTORADIOGRAPHY).
Take `CCNc1cc(O)ccc1C`: the mutagenic call reads like this: (Test System: AMES SALMONELLA TYPHIMURIUM, Strain/Indicator: TA97, Metabolic Activation: HAMSTER, LIVER, S-9, AROCLOR 1254 (10%), Method: PREINCUBATION) “inactive; negative”; (Test System: AMES SALMONELLA TYPHIMURIUM, Strain/Indicator: TA97, Metabolic Activation: NONE, Method: PREINCUBATION) “inactive; negative”; (Test System: AMES SALMONELLA TYPHIMURIUM, Strain/Indicator: TA97, Metabolic Activation: RAT, LIVER, S-9, AROCLOR 1254 (10%), Method: PREINCUBATION) “inactive; negative”; (Test System: AMES SALMONELLA TYPHIMURIUM, Strain/Indicator: TA98, Metabolic Activation: HAMSTER, LIVER, S-9, AROCLOR 1254 (10%), Method: PREINCUBATION) “active; positive”; (Test System: AMES SALMONELLA TYPHIMURIUM, Strain/Indicator: TA98, Metabolic Activation: NONE, Method: PREINCUBATION) “inactive; negative”; (Test System: AMES SALMONELLA TYPHIMURIUM, Strain/Indicator: TA98, Metabolic Activation: RAT, LIVER, S-9, AROCLOR 1254 (10%), Method: PREINCUBATION) “active; positive”. The mutagenic call by setting is: (Test System: AMES SALMONELLA TYPHIMURIUM, Strain/Indicator: TA100, Metabolic Activation: HAMSTER, LIVER, S-9, AROCLOR 1254 (10%), Method: PREINCUBATION) “active; positive”; (Test System: AMES SALMONELLA TYPHIMURIUM, Strain/Indicator: TA100, Metabolic Activation: NONE, Method: PREINCUBATION) “inactive; negative”; (Test System: AMES SALMONELLA TYPHIMURIUM, Strain/Indicator: TA100, Metabolic Activation: RAT, LIVER, S-9, AROCLOR 1254 (10%), Method: PREINCUBATION) “inactive; negative”; (Test System: AMES SALMONELLA TYPHIMURIUM, Strain/Indicator: TA1535, Metabolic Activation: HAMSTER, LIVER, S-9, AROCLOR 1254 (10%), Method: PREINCUBATION) “inactive; negative”; (Test System: AMES SALMONELLA TYPHIMURIUM, Strain/Indicator: TA1535, Metabolic Activation: NONE, Method: PREINCUBATION) “inactive; negative”; (Test System: AMES SALMONELLA TYPHIMURIUM, Strain/Indicator: TA1535, Metabolic Activation: RAT, LIVER, S-9, AROCLOR 1254 (10%), Method: PREINCUBATION) “inactive; negative”.
Take `CC(N)=O`: the mutagenic call runs as follows: (End Point: IN VIVO MICRONUCLEUS, Test System: BLOOD ERYTHROCYTES, Species: MOUSE, Strain/Sex: CD-1/MALE, Route: INTRAPERITONEAL INJECTION) “inactive; negative”; under setting [1], “inactive; negative”; (Test System: AMES SALMONELLA TYPHIMURIUM, Strain/Indicator: TA98, Metabolic Activation: RAT, LIVER, S-9, Method: STANDARD PLATE) “inactive; negative”; under setting [2], “inactive; negative”; (Test System: AMES SALMONELLA TYPHIMURIUM, Strain/Indicator: TA100, Metabolic Activation: RAT, LIVER, S-9, Method: STANDARD PLATE) “inactive; negative”; (Test System: Ames Salmonella typhimurium, Strain/Indicator: YG7108pin3ERb5, Metabolic Activation: None, Method: Standard plate) “inactive; negative”.
Consider `N=c1ccc2c(-c3ccccc3C(=O)O)c3ccc(N)cc3oc-2c1`, for which the mutagenic call under setting [3] is “inactive; negative” and the mutagenic call under setting [4] is “inactive; negative”.
